Experimental data from ChEMBL document CHEMBL1201862, “PubChem BioAssay data set” (2004).
Blank lines part the entries; values can stand above or below the compound they belong to. Activity calls are given as the source filed them.

Experiments:
[1] = viability of HCT116 lacking mutant beta-catenin – cell-based, human colon tumor, dose response (AID 1045); type: functional;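 also: HCT116 colon tumor cells with beta catenin knocked out; cells exposed to compound for 60 hours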
[2] = Luminescence Cell-Based Dose Retest to Confirm Inhibitors of Cancer Stem Cells. [Related pubchem assays (depositor defined):AID2717, AID2721]; type: functional; conditions: Homo sapiens
X-box-binding protein 1 = X-box-binding protein 1 (Homo sapiens, UniProt P17861); type: functional, Cricetulus griseus;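 also: confirmatory dose-response counter-screen serving a CHOP assay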
Sequence of X-box-binding protein 1 (P17861 whole entry): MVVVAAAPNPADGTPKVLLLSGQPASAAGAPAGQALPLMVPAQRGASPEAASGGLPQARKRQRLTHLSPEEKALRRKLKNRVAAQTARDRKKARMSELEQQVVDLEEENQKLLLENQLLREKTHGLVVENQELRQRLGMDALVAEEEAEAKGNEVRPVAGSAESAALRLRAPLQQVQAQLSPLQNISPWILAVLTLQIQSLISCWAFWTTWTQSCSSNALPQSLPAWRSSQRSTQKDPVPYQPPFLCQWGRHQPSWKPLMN

[3] = viability of PTEN-deleted HCT116 cells – cell-based, HCT116 PTEN knockout, dose response (AID 1047); type: functional;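 also: HCT116 colon tumor cells with PTEN knocked out; cells exposed to compound for 60 hours before readout; potency for loss of cell viability measured by luminescence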
Coagulation factor XII = target: T1, Coagulation factor XII (Homo sapiens, UniProt P00748); test: activated coagulation factor XII inhibitor potency, concentration-effect curve, cell-free (AID 716); type: functional
T1 sequence (P00748 whole entry): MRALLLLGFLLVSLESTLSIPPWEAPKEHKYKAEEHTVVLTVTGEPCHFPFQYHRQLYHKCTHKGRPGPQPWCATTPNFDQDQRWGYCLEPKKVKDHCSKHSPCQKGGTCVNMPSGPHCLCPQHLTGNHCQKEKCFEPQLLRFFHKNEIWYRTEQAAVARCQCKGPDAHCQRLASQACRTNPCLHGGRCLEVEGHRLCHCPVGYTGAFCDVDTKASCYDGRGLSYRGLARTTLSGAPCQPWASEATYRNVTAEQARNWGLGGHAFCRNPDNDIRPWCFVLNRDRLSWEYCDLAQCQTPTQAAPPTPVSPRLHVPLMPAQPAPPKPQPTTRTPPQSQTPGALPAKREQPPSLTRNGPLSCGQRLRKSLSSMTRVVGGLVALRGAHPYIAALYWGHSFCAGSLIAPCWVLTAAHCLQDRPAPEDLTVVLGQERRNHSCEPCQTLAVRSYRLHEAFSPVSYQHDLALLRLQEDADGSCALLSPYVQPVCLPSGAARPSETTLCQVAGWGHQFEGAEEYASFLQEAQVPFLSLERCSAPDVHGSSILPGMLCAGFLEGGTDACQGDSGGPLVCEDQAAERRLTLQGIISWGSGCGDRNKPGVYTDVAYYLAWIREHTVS

[4] = target: Intestinal-type alkaline phosphatase (Homo sapiens, UniProt P09923); test: human intestinal alkaline phosphatase activators, dose response, biochemical, luminescence, uHTS hits (AID 463120); type: functional
Sequence of Intestinal-type alkaline phosphatase (P09923 whole entry): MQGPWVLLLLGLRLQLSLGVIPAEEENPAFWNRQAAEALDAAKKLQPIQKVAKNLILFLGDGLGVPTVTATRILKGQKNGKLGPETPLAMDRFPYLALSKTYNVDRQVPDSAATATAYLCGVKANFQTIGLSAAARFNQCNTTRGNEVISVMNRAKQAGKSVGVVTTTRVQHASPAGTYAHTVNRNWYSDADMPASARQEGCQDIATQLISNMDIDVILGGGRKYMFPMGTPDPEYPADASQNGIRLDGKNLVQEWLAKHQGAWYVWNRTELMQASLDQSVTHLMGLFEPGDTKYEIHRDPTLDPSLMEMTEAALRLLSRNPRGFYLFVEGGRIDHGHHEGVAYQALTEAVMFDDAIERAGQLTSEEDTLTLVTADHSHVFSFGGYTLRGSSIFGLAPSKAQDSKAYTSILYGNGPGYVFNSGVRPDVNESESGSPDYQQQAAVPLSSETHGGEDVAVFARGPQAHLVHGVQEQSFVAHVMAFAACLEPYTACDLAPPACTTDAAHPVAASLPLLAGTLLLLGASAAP

CAAX prenyl protease 2 = CAAX prenyl protease 2 (Saccharomyces cerevisiae S288c, UniProt Q03530); type: biochemical
Sequence of CAAX prenyl protease 2 (Q03530 whole entry): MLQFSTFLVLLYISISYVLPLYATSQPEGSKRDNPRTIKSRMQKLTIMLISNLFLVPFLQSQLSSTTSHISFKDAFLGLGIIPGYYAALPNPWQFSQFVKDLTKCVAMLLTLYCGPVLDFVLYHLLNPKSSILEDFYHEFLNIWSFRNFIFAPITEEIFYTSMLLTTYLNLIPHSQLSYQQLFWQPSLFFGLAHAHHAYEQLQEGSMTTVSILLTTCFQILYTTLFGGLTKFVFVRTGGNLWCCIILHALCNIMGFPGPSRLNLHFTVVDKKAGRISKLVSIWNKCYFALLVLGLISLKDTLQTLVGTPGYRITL

[5] = viability of uninfected HEp-2 cells – cell-based, HTS, cytotoxicity control for RSV inhibitor project, dose response (AID 2410); type: functional; conditions: human respiratory syncytial virus
[6] = target: Nucleotide-binding oligomerization domain-containing protein 2 (Homo sapiens, UniProt Q9HC29); test: PubChem AID 2334; type: functional
Sequence of Nucleotide-binding oligomerization domain-containing protein 2 (Q9HC29 whole entry, the tested form may be a part): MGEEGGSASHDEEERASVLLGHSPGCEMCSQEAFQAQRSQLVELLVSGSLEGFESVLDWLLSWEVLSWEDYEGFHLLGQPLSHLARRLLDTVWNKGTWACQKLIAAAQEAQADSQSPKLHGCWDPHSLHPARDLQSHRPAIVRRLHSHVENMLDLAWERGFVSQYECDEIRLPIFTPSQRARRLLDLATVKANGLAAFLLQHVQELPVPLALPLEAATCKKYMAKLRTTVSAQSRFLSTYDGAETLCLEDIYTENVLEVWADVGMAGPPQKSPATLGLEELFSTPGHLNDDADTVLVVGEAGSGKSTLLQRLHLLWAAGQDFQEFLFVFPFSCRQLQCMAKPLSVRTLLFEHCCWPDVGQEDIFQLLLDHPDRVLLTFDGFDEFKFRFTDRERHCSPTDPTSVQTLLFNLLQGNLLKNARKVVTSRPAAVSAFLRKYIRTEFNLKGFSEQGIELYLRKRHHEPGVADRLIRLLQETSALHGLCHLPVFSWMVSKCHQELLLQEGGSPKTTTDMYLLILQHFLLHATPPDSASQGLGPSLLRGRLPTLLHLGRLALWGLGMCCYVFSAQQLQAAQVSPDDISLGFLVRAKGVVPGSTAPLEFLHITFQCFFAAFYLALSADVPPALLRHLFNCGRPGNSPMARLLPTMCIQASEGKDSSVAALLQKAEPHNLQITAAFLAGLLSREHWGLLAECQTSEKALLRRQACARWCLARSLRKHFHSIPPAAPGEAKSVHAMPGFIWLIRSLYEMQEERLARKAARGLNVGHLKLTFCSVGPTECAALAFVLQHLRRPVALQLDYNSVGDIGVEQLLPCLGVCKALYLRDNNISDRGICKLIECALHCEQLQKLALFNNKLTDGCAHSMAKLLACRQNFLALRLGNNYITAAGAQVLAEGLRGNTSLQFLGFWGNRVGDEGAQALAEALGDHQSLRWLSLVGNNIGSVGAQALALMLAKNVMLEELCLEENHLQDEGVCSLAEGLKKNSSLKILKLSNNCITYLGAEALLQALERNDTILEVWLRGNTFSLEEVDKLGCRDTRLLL

HEK293 = test: cells; conditions: Homo sapiens;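 also: cells exposed to compound for 14 hours overnight before viability readout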
Tumor necrosis factor = Tumor necrosis factor (Homo sapiens, UniProt P01375); test: analog potency on TNFa NF-kB signaling – cell-based, revised, SAR follow-up (AID 2337); type: functional
Sequence of Tumor necrosis factor (P01375 whole entry, the tested form may be a part): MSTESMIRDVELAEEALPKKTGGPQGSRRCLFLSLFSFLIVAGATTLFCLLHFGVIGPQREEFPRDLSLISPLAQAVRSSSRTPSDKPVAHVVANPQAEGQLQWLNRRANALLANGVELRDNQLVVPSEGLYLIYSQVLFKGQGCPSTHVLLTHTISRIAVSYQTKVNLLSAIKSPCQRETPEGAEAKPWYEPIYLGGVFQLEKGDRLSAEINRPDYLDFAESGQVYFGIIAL

[7] = target: T2, Nucleotide-binding oligomerization domain-containing protein 1 (Homo sapiens, UniProt Q9Y239); test: blockers of NOD1 pathway activity – revised, SAR follow-up (AID 2333); type: functional
T2 sequence (Q9Y239 whole entry): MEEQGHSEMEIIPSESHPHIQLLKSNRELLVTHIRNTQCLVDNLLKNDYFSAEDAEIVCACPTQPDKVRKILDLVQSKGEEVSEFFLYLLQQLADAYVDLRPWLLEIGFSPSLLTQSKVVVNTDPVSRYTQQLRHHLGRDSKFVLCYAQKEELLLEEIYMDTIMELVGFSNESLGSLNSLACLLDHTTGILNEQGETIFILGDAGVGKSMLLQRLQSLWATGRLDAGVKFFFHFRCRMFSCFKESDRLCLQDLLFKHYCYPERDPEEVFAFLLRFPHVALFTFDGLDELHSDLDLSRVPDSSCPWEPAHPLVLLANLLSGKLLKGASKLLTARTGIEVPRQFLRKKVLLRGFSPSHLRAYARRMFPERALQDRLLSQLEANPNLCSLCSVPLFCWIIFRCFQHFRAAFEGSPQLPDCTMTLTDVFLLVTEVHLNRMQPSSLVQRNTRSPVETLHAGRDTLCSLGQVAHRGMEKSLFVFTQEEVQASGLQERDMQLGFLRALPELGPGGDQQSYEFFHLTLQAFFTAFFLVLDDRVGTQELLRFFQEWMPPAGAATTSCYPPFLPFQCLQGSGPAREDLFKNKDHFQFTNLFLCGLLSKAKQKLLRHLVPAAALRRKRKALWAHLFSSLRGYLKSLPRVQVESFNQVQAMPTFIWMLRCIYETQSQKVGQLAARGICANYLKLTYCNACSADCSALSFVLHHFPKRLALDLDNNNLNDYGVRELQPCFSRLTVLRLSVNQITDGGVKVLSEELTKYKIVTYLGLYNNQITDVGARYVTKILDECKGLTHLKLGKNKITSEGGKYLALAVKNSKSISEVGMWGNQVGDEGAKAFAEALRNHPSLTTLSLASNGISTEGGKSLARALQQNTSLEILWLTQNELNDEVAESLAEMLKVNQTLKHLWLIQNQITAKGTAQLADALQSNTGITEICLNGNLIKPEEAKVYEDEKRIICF

[8] = target: T3, Alkaline phosphatase, tissue-nonspecific isozyme (Homo sapiens, UniProt P05186); test: potency against alkaline phosphatase TNAP – biochemical, luminescent, dose response, SAR follow-up (AID 1056)
T3 sequence (P05186 whole entry): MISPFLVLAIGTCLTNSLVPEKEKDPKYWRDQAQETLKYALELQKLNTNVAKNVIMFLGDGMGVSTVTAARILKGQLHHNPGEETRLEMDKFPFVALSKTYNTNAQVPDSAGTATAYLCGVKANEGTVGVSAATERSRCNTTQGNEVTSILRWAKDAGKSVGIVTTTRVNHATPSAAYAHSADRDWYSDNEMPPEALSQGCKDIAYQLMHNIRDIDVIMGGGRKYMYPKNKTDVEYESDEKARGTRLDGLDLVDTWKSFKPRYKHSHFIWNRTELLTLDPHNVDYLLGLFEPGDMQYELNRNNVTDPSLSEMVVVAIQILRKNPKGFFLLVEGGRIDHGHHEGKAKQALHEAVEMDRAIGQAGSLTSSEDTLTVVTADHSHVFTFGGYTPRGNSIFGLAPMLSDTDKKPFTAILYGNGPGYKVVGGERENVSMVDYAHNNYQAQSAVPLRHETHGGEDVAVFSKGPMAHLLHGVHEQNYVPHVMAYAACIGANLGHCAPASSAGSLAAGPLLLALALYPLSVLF

[9] = target: Alkaline phosphatase, placental type (Homo sapiens, UniProt P05187); test: human placental alkaline phosphatase inhibition – biochemical, luminescence, confirmation (AID 1512); type: functional
Sequence of Alkaline phosphatase, placental type (P05187 whole entry): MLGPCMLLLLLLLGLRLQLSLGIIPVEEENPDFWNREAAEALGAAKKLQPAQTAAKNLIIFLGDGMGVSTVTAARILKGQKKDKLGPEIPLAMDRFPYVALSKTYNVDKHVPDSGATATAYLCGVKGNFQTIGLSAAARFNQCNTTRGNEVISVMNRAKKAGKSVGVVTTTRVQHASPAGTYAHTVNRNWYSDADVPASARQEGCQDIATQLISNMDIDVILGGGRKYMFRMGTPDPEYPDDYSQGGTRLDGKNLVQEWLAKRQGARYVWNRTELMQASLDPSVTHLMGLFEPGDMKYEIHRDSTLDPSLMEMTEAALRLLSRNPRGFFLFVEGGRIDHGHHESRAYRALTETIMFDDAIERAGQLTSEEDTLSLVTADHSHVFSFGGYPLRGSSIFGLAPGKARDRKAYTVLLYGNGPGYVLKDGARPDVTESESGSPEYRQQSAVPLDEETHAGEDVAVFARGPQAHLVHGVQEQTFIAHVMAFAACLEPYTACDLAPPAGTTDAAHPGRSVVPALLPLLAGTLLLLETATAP

[10] = target: T4, Mannose-6-phosphate isomerase (Homo sapiens, UniProt P34949); test: phosphomannose isomerase inhibition – biochemical, fluorescence intensity, confirmation (AID 1535)
T4 sequence (P34949 whole entry): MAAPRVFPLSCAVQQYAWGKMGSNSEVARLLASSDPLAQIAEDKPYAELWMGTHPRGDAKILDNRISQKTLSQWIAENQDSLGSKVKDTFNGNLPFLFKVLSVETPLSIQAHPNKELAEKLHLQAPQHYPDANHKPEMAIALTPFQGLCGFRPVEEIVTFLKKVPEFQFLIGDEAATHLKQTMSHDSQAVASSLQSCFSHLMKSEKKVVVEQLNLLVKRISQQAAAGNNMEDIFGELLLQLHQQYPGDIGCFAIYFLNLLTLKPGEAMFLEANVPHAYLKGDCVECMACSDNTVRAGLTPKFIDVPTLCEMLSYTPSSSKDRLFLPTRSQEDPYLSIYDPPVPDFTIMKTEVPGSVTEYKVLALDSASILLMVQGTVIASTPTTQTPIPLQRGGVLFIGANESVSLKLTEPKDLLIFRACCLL

[11] = target: Phosphoethanolamine/phosphocholine phosphatase (Homo sapiens, UniProt Q8TCT1); test: SAR assay for compounds that inhibit PHOSPHO1. [Related pubchem assays (depositor defined):AID1545, AID1565, AID1574]
Sequence of Phosphoethanolamine/phosphocholine phosphatase (Q8TCT1 whole entry): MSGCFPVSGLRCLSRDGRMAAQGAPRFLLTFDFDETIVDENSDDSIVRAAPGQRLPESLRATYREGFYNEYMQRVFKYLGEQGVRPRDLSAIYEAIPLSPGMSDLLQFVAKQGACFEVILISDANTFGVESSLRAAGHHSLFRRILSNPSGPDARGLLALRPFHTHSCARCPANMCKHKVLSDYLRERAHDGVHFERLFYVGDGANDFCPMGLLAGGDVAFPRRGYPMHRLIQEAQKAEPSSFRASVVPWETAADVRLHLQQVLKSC

Phosphomannomutase 2 = target: T5, Phosphomannomutase 2 (Homo sapiens, UniProt O15305); test: Counter screen SAR assay for PMM2 inhibitors via a fluorescence intensity assay. [Related pubchem assays (depositor defined):AID1545, AID1574]
T5 sequence (O15305 whole entry): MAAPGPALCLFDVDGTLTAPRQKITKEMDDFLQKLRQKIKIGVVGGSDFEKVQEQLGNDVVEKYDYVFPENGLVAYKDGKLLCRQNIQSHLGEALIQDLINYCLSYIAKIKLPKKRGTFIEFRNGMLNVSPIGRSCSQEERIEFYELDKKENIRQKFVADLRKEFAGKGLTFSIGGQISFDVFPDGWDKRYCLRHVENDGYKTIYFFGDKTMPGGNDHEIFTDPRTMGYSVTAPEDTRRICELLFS

SMILES: Cc1ccc(NC(S)=NC(NC(=O)Cc2cccc3ccccc23)C(Cl)(Cl)Cl)cc1 (configuration not stated)
EC50 [1]: 18.3 µM (active) | AC50 [2]: 2.18 µM (active) | Absolute IC50 (XBP1) (X-box-binding protein 1): 10 µM | EC50 [3]: 13.1 µM (active)

SMILES: CN(C)CCNC(=O)c1cccn(Cc2cc(C(F)(F)F)cc(C(F)(F)F)c2)c1=O
AC50 (CAAX prenyl protease 2): > 100 µM (inactive)

SMILES: O=C(CCc1ccccc1)Nc1sc2c(c1C(=O)O)CCCC2
CC50 [5]: 42.7 µM (active) | IC50 (cells): 39.6 µM (active) | AC50 [2]: 28.3 µM (active) | IC50 [6]: > 20 µM (inactive) | IC50 (HEK293): > 20 µM (inactive) | IC50 (Tumor necrosis factor): > 20 µM (inactive) | IC50 [7]: > 20 µM (inactive)

SMILES: Cn1nc(-c2ccc(Cl)cc2)cc1C(=O)NC1CCCc2c1cnn2-c1ccccc1F (configuration not stated)
IC50 [6]: 1.72 µM (active) | IC50 (HEK293): > 20 µM (inactive) | IC50 (Tumor necrosis factor): 2.72 µM (active) | IC50 [7]: 1.92 µM (active)

Continued, values first:

IC50 (Coagulation factor XII): > 50 µM (inactive)
SMILES: COc1ccc2cc(CN(CCO)C(=O)c3ccccc3F)c(=O)[nH]c2c1

IC50 (Coagulation factor XII): > 50 µM (inactive)
SMILES: CCCSc1nnc(-c2c[nH]c3ccccc23)n1C

EC50 [4]: 13.1 µM (active)
SMILES: CCOc1ccc(CC(=O)NNC(=S)NCCc2ccccc2)cc1

IC50 [8]: 39.3 µM (active) | IC50 [9]: 4.87 µM (active)
SMILES: O=C(CN1CCCc2ccccc21)c1ccc(O)c(O)c1

IC50 [10]: 0.709 µM (active) | IC50 [11]: 0.1 µM (active) | IC50 (Phosphomannomutase 2): 2.46 µM (active)
SMILES: O=c1c2c([N+](=O)[O-])cc([N+](=O)[O-])cc2sn1-c1ccc(F)cc1

IC50 [10]: 1.45 µM (active) | IC50 [11]: 0.0233 µM (active) | IC50 (Phosphomannomutase 2): 4.22 µM (active)
SMILES: O=c1c2c([N+](=O)[O-])cc([N+](=O)[O-])cc2sn1-c1ccccc1F
